Measured values published in patent US5414010A, “Dimeric benzimidazoles as central nervous system agents” (Warner-Lambert Company, priority 1994, dated 1995).

Columns and labels:
human D3 receptors = molecular target: T1, human D3 receptors (Homo sapiens, UniProt P35462); assay: Inhibition of [^3 H]spiperone binding to human D3 receptors
T1 construct: expressed in transfected cells
Protocol: (§1) Dopamine D2 antagonists are established as antipsychotic agents. More recently, the dopamine D3 receptor has been identified. On the basis of the localization of the dopamine D3 receptor in the limbic area of the brain, a selective D3 antagonist should show antipsychotic activity but not have the neurological side effects of D2 antagonists. […] Thus, the compounds of Formula I were tested for their ability to bind to dopamine receptors as measured by their inhibition of [^3 H]spiperone binding to the human D2 and D3 receptors in a receptor assay described by MacKenzie R. G., et al., Characterization of the human D3 dopamine receptor expressed in transfected cell lines, Eur. J. Pharmacol., 266:79 (1994); and for their ability to inhibit locomotor activity in mice and rats, a measure of antipsychotic activity, according to the assay described by McLean J. R., et al., Pharmacology, Biochemistry and Behavior, 8:97- 99 (1978). The above test methods are incorporated herein by reference.

human D2 receptors = molecular target: T2, human D2 receptors (Homo sapiens, UniProt P14416); assay: Inhibition of [^3 H]spiperone binding to human D2 receptors
T2 construct: expressed in transfected cells
Protocol: as §1

rats = assay: Inhibition of locomotor activity in rats; type: in vivo; conditions: Rattus norvegicus, IP
Text: The compounds of Formula I are valuable dopaminergic agents. Dopamine D2 antagonists are established as antipsychotic agents. More recently, the dopamine D3 receptor has been identified. On the basis of the localization of the dopamine D3 receptor in the limbic area of the brain, a selective D3 antagonist should show antipsychotic activity but not have the neurological side effects of D2 antagonists. The tests employed indicate that compounds of Formula I bind selectively to the dopamine D3 receptor. Thus, the compounds of Formula I were tested for their ability to bind to dopamine receptors as measured by their inhibition of [^3 H]spiperone binding to the human D2 and D3 receptors in a receptor assay described by MacKenzie R. G., et al., Characterization of the human D3 dopamine receptor expressed in transfected cell lines, Eur. J. Pharmacol., 266:79 (1994); and for their ability to inhibit locomotor activity in mice and rats, a measure of antipsychotic activity, according to the assay described by McLean J. R., et al., Pharmacology, Biochemistry and Behavior, 8:97- 99 (1978). The above test methods are incorporated herein by reference.

T2 sequence (P14416 whole entry): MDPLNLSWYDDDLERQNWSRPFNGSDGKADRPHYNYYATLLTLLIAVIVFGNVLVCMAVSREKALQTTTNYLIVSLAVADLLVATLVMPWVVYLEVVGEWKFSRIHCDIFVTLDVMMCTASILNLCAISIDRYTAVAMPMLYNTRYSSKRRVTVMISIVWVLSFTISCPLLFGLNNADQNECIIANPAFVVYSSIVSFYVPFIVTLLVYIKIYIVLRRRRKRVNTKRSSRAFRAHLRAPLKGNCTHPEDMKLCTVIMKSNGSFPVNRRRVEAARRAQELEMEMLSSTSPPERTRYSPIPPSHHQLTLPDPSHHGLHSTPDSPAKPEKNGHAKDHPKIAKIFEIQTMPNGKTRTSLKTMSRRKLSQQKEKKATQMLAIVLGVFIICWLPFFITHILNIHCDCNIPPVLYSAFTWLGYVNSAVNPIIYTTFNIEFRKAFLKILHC
T1 sequence (P35462 whole entry): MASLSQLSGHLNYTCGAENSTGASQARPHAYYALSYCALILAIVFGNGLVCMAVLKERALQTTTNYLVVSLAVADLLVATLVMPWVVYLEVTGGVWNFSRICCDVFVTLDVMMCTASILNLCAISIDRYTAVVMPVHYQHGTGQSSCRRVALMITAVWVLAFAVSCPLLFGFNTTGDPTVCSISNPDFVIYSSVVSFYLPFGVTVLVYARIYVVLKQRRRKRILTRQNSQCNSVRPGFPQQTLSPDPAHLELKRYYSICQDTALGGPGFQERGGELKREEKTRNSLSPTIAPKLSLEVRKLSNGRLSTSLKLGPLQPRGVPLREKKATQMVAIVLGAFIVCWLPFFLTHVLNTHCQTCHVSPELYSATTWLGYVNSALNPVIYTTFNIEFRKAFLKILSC

IC50 (human D3 receptors) [nM]	IC50 (human D2 receptors) [nM]	Structure (SMILES)	ED50 (rats) [mg/kg]
143		CN(C)CCCOc1ccc(-c2nc3ccccc3n2C/C=C/Cn2c(-c3ccc(OCCCN(C)C)cc3)nc3ccccc32)cc1 [Example 5, E-(3-{4-[1-(4-{2-[4-(3-Dimethylaminopropoxy)phenyl]benzoimidazol-1-yl}but-2-enyl)-1H-benzoimidazol-2-yl]phenoxy}propyl)dimethylamine]	
9		C(=C\Cn1c(-c2ccc(OCCCN3CCCCC3)cc2)nc2ccccc21)/Cn1c(-c2ccc(OCCCN3CCCCC3)cc2)nc2ccccc21 [Example 6]	
6	200	CC(C)N(C)CCCOc1ccc(-c2nc3ccccc3n2C/C=C/Cn2c(-c3ccc(OCCCN(C)C(C)C)cc3)nc3ccccc32)cc1 [Example 9, E-Isopropyl-[3-(4-{1-[4-(2-{4-[3-(isopropylmethylamino)propoxy]phenyl}benzoimidazol-1-yl)but-2-enyl]-1H-benzoimidazol-2-yl}phenoxy)propyl]methylamine]	
	6430	CCN(CC)CCCOc1ccc(-c2nc3ccccc3n2C/C=C/Cn2c(-c3ccccc3)nc3ccccc32)cc1 [Example 13, Diethyl-[3-(4-{1-[4-(2-phenylbenzoimidazol-1-yl)but-2-enyl]-1H-benzoimidazol-2-yl}phenoxy)propyl]amine]	

Further lines, the molecule ahead of its results:

Structure (SMILES)	IC50 (human D3 receptors) [nM]	IC50 (human D2 receptors) [nM]	ED50 (rats) [mg/kg]
C(=C\Cn1c(-c2ccc(OCCCN3CCCC3)cc2)nc2ccccc21)/Cn1c(-c2ccc(OCCCN3CCCC3)cc2)nc2ccccc21 [Example 1]	9		
CCCN(CCC)CCCOc1ccc(-c2nc3ccccc3n2C/C=C/Cn2c(-c3ccc(OCCCN(CCC)CCC)cc3)nc3ccccc32)cc1 [Example 2, E-(3-{4-[1-(4-{2-[4-(3-Dipropylaminopropoxy)phenyl]benzoimidazol-1-yl}but-2-enyl)-1H-benzoimidazol-2-yl]phenoxy}propyl)dipropylamine]	5		
CCN(CC)CCCOc1cccc(-c2nc3ccccc3n2C/C=C/Cn2c(-c3cccc(OCCCN(CC)CC)c3)nc3ccccc32)c1 [Example 7, E-(3-{3-[1-(4-{2-[3-(3-Diethylaminopropoxy)phenyl]benzoimidazol-1-yl}but-2-enyl)-1H-benzoimidazol-2-yl]phenoxy}propyl)diethylamine]	16	2450	
CCCCN(CCCC)CCCOc1ccc(-c2nc3ccccc3n2C/C=C/Cn2c(-c3ccc(OCCCN(CCCC)CCCC)cc3)nc3ccccc32)cc1 [Example 8, E-Dibutyl-(3-{4-[1-(4-{2-[4-(3-dibutylaminopropoxy)phenyl]benzoimidazol-1-yl}-but-2-enyl)-1H-benzoimidazol-2-yl]phenoxy}propyl)amine]		427	
CCN(CC)CCCOc1ccc(-c2nc3ccccc3n2C/C=C/Cn2c(-c3ccc(OCCCN(CC)CC)cc3)nc3ccccc32)cc1 [Example 10, E-(3-{4-[1-(4-{2-[4-(3-Diethylaminopropoxy)phenyl]benzoimidazol-1-yl}but-2-enyl)-1H-benzoimidazol-2-yl]phenoxy}propyl)diethylamine]	16		3.9
CCCN(CCC)CCCOc1ccc(-c2nc3ccccc3n2CCCCn2c(-c3ccc(OCCCN(CCC)CCC)cc3)nc3ccccc32)cc1 [Example 11, (3-{4-[1-(4-{2-[4-(3-Dipropylaminopropoxy)phenyl]benzoimidazol-1-yl}butyl)-1H-benzoimidazol-2-yl]phenoxy}propyl)dipropylamine]	16	2740	
CCN(CC)CCCOc1ccc(-c2nc3ccccc3n2CCCCn2c(-c3ccc(OCCCN(CC)CC)cc3)nc3ccccc32)cc1 [Example 12, (3-{4-[1-(4-{2-[4-(3-Diethylaminopropoxy)phenyl]benzoimidazol-1-yl}butyl)-1H-benzoimidazol-2-yl]phenoxy}propyl)diethylamine]	36	1070	2.8
NCCCOc1ccc(-c2nc3ccccc3n2C/C=C/Cn2c(-c3ccc(OCCCN4CCN(c5ccccc5)CC4)cc3)nc3ccccc32)cc1 [Example 15]	19	803	
CCN1CCCC1CNC(=O)c1ccc(-c2nc3ccccc3n2CCCCn2c(-c3ccc(C(=O)NCC4CCCN4CC)cc3)nc3ccccc32)cc1 (centres unmarked) [Example 16]	85	1430	
CCN(CC)CCNC(=O)c1ccc(-c2nc3ccccc3n2CCCCn2c(-c3ccc(C(=O)NCCN(CC)CC)cc3)nc3ccccc32)cc1 [Example 17]	110	3070	
